Laboratory results from patent US8658801B2, “Pesticides containing a bicyclic bisamide structure” (Syngenta Crop Protection, LLC, priority 2006, dated 2014).

| melting point [°C] | Structure (SMILES) |
| --- | --- |
| 210 to 211 | CNC(=O)c1c(NC(=O)c2cc(C(F)(F)F)nn2-c2ncccc2Cl)ccc2ncccc12 [Example 46, 6-{[2-(3-chloro-pyridin-2-yl)-5-trifluoromethyl-2H-pyrazole-3-carbonyl]-amino}-quinoline-5-carboxylic acid methylamide] |
| 225 to 226 | CC(C)NC(=O)c1c(NC(=O)c2cc(C(F)(F)F)nn2-c2ncccc2Cl)ccc2cccnc12 [P.73, 7-{[2-(3-chloro-pyridin-2-yl)-5-trifluoromethyl-2H-pyrazole-3-carbonyl]-amino}-quinoline-8-carboxylic acid isopropylamide] |
| 233 to 236 | C#Cc1cc2cn[nH]c2c(C(=O)NC(C)C)c1NC(=O)c1cc(C(F)F)nn1-c1ncccc1Cl [P.80] |
| 218 to 221 | C#Cc1cc2cn[nH]c2c(C(=O)NC2(C3CC3)CC2)c1NC(=O)c1cc(C(F)F)nn1-c1ncccc1Cl [P.81] |
